{
  "source": "patent US20240050454A1",
  "about": "“Compositions and Methods For Treating Neurological Conditions” (WeSana Health Inc., priority 2020, published 2024)",
  "key": {"mice (BALB/c) [1]": {"system": "mice (BALB/c)", "test": "Elevated plus maze (EPM), anxiety-like behavior"}, "mice (BALB/c) [2]": {"system": "mice (BALB/c)", "test": "Tail suspension test (TST), psilocybin loading dose then psilocybin+CBD+6 MB maintenance"}, "[3]": {"conditions": "psilocybin: loading dose 5 mg/kg alone, combination: given after the psilocybin loading dose"}},
  "note": "Entries after “also recorded” stand apart in the source; their conditions may differ.",
  "data": [
    {"substance": "[3-(2-dimethylaminoethyl)-1H-indol-4-yl] dihydrogen phosphate [psilocybin]", "values": [
      {"measurement": "percentage of time spent in open space (open arms of the EPM)", "setting": "mice (BALB/c) [1]; Day 14, two weeks after psilocybin loading dose 5 mg/kg, vs vehicle control, FIG. 2, 5 mg/kg", "value": "significantly increased; also recorded: more time"},
      {"measurement": "anxiety in mouse models", "setting": "mice (BALB/c) [1]; [3]", "value": "decreased"},
      {"measurement": "immobile posture time in TST", "setting": "mice (BALB/c) [2]; Day 15, psilocybin loading dose 5 mg/kg on Day 1, FIG. 4A", "value": "decreased"},
      {"measurement": "depression / depressive symptoms in mouse models", "setting": "mice (BALB/c) [2]; [3]", "value": "decreased"},
      {"measurement": "time spent immobile in TST", "setting": "mice (BALB/c) [2]; three weeks after 5 mg/kg loading dose of psilocybin (Day 22), loading dose only", "value": "significant decrease"}
    ]}
  ]
}
